Laboratory results taken from patent US10251395B2, “Substituted furano-/thienocycloalkylamino-2-pyrimidine derivatives and use thereof for controlling undesired plant growth” (Bayer CropScience Aktiengesellschaft, priority 2015, dated 2019).

Legend:
Assay type in all cases: in vivo
Abutilon theophrasti [1] = assay: Pre-emergence herbicidal effect; settings: scored visually after 3 weeks
In short: (§1)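 Visual damage score in % after 3 weeks in the greenhouse, relative to untreated controls (0% like control, 100% plants dead). Compounds were sprayed pre-emergence onto covering soil over seeds sown in sandy loam, as WP or EC in water at 600 to 800 L/ha plus 0.2% wetting agent.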

Alopecurus myosuroides [2] = assay: Pre-emergence herbicidal effect; settings: scored visually after 3 weeks
In short: as §1

Amaranthus retroflexus [3] = assay: Pre-emergence herbicidal effect; settings: scored visually after 3 weeks
In short: as §1

Avena fatua [4] = assay: Pre-emergence herbicidal effect; settings: Dosage 320 g/ha, scored visually after 3 weeks
In short: as §1

Echinochloa crus-galli [5] = assay: Pre-emergence herbicidal effect; settings: scored visually after 3 weeks
In short: as §1

Ipomoea purpurea [6] = assay: Pre-emergence herbicidal effect; settings: scored visually after 3 weeks
In short: as §1

Lolium multiflorum [7] = assay: Pre-emergence herbicidal effect; settings: scored visually after 3 weeks
In short: as §1

Matricaria inodora [8] = assay: Pre-emergence herbicidal effect; settings: scored visually after 3 weeks
In short: as §1

Polygonum convolvulus [9] = assay: Pre-emergence herbicidal effect; settings: scored visually after 3 weeks
In short: as §1

Setaria viridis [10] = assay: Pre-emergence herbicidal effect; settings: scored visually after 3 weeks
In short: as §1

Stellaria media [11] = assay: Pre-emergence herbicidal effect; settings: scored visually after 3 weeks
In short: as §1

Veronica persica [12] = assay: Pre-emergence herbicidal effect; settings: Dosage 320 g/ha, scored visually after 3 weeks
In short: as §1

Viola tricolor [13] = assay: Pre-emergence herbicidal effect; settings: scored visually after 3 weeks
In short: as §1

Abutilon theophrasti [14] = assay: Post-emergence herbicidal effect; settings: assessed visually after about 3 weeks vs untreated controls
In short: (§2)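 Greenhouse weeds grown in sandy loam were sprayed at the one-leaf stage, 2–3 weeks after sowing, with WP or EC formulations in 600–800 L/ha water plus 0.2% wetting agent. Damage was scored visually after about 3 weeks as percent activity relative to untreated controls, where 100% means the plants died.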

Alopecurus myosuroides [15] = assay: Post-emergence herbicidal effect; settings: 320 g/ha, assessed visually after about 3 weeks vs untreated controls
In short: as §2

Amaranthus retroflexus [16] = assay: Post-emergence herbicidal effect; settings: assessed visually after about 3 weeks vs untreated controls
In short: as §2

Avena fatua [17] = assay: Post-emergence herbicidal effect; settings: 320 g/ha, assessed visually after about 3 weeks vs untreated controls
In short: as §2

Echinochloa crus-galli [18] = assay: Post-emergence herbicidal effect; settings: assessed visually after about 3 weeks vs untreated controls
In short: as §2

Ipomoea purpurea [19] = assay: Post-emergence herbicidal effect; settings: assessed visually after about 3 weeks vs untreated controls
In short: as §2

Lolium multiflorum [20] = assay: Post-emergence herbicidal effect; settings: 320 g/ha, assessed visually after about 3 weeks vs untreated controls
In short: as §2

Matricaria inodora [21] = assay: Post-emergence herbicidal effect; settings: assessed visually after about 3 weeks vs untreated controls
In short: as §2

Polygonum convolvulus [22] = assay: Post-emergence herbicidal effect; settings: 320 g/ha, assessed visually after about 3 weeks vs untreated controls
In short: as §2

Setaria viridis [23] = assay: Post-emergence herbicidal effect; settings: assessed visually after about 3 weeks vs untreated controls
In short: as §2

Stellaria media [24] = assay: Post-emergence herbicidal effect; settings: assessed visually after about 3 weeks vs untreated controls
In short: as §2

Veronica persica [25] = assay: Post-emergence herbicidal effect; settings: 320 g/ha, assessed visually after about 3 weeks vs untreated controls
In short: as §2

Viola tricolor [26] = assay: Post-emergence herbicidal effect; settings: assessed visually after about 3 weeks vs untreated controls
In short: as §2

Structure (SMILES): CC(=O)c1cnc(NC2CCCc3sc(C)cc32)nc1N (stereo not drawn) [compound 283]
- ABUTH pre-emergence efficacy (herbicidal activity) (Abutilon theophrasti [1]; Dosage 80 g/ha): 90%
- ABUTH pre-emergence efficacy (herbicidal activity) (Abutilon theophrasti [1]; Dosage 320 g/ha): 100%
- ALOMY pre-emergence efficacy (herbicidal activity) (Alopecurus myosuroides [2]; Dosage 80 g/ha): 80%
- ALOMY pre-emergence efficacy (herbicidal activity) (Alopecurus myosuroides [2]; Dosage 320 g/ha): 100%
- AMARE pre-emergence efficacy (herbicidal activity) (Amaranthus retroflexus [3]; Dosage 80 g/ha): 100%
- AMARE pre-emergence efficacy (herbicidal activity) (Amaranthus retroflexus [3]; Dosage 320 g/ha): 100%
- AVEFA pre-emergence efficacy (herbicidal activity) (Avena fatua [4]): 80%
- ECHCG pre-emergence efficacy (herbicidal activity) (Echinochloa crus-galli [5]; Dosage 80 g/ha): 100%
- ECHCG pre-emergence efficacy (herbicidal activity) (Echinochloa crus-galli [5]; Dosage 320 g/ha): 100%
- PHBPU pre-emergence efficacy (herbicidal activity) (Ipomoea purpurea [6]; Dosage 80 g/ha): 60%
- PHBPU pre-emergence efficacy (herbicidal activity) (Ipomoea purpurea [6]; Dosage 320 g/ha): 100%
- LOLMU pre-emergence efficacy (herbicidal activity) (Lolium multiflorum [7]; Dosage 80 g/ha): 100%
- LOLMU pre-emergence efficacy (herbicidal activity) (Lolium multiflorum [7]; Dosage 320 g/ha): 100%
- MATIN pre-emergence efficacy (herbicidal activity) (Matricaria inodora [8]; Dosage 80 g/ha): 100%
- MATIN pre-emergence efficacy (herbicidal activity) (Matricaria inodora [8]; Dosage 320 g/ha): 100%
- POLCO pre-emergence efficacy (herbicidal activity) (Polygonum convolvulus [9]; Dosage 80 g/ha): 100%
- POLCO pre-emergence efficacy (herbicidal activity) (Polygonum convolvulus [9]; Dosage 320 g/ha): 100%
- SETVI pre-emergence efficacy (herbicidal activity) (Setaria viridis [10]; Dosage 80 g/ha): 100%
- SETVI pre-emergence efficacy (herbicidal activity) (Setaria viridis [10]; Dosage 320 g/ha): 100%
- STEME pre-emergence efficacy (herbicidal activity) (Stellaria media [11]; Dosage 80 g/ha): 100%
- STEME pre-emergence efficacy (herbicidal activity) (Stellaria media [11]; Dosage 320 g/ha): 100%
- VERPE pre-emergence efficacy (herbicidal activity) (Veronica persica [12]): 100%
- VIOTR pre-emergence efficacy (herbicidal activity) (Viola tricolor [13]; Dosage 80 g/ha): 100%
- VIOTR pre-emergence efficacy (herbicidal activity) (Viola tricolor [13]; Dosage 320 g/ha): 100%
- post-emergence efficacy ABUTH (Abutilon theophrasti [14]; 80 g/ha): 90%
- post-emergence efficacy ABUTH (Abutilon theophrasti [14]; 320 g/ha): 90%
- post-emergence efficacy ALOMY (Alopecurus myosuroides [15]): 90%
- post-emergence efficacy AMARE (Amaranthus retroflexus [16]; 80 g/ha): 90%
- post-emergence efficacy AMARE (Amaranthus retroflexus [16]; 320 g/ha): 100%
- post-emergence efficacy AVEFA (Avena fatua [17]): 80%
- post-emergence efficacy ECHCG (Echinochloa crus-galli [18]; 80 g/ha): 80%
- post-emergence efficacy ECHCG (Echinochloa crus-galli [18]; 320 g/ha): 100%
- post-emergence efficacy PHBPU (Ipomoea purpurea [19]; 80 g/ha): 80%
- post-emergence efficacy PHBPU (Ipomoea purpurea [19]; 320 g/ha): 90%
- post-emergence efficacy LOLMU (Lolium multiflorum [20]): 100%
- post-emergence efficacy MATIN (Matricaria inodora [21]; 80 g/ha): 90%
- post-emergence efficacy MATIN (Matricaria inodora [21]; 320 g/ha): 90%
- post-emergence efficacy POLCO (Polygonum convolvulus [22]): 70%
- post-emergence efficacy SETVI (Setaria viridis [23]; 80 g/ha): 50%
- post-emergence efficacy SETVI (Setaria viridis [23]; 320 g/ha): 90%
- post-emergence efficacy STEME (Stellaria media [24]; 80 g/ha): 100%
- post-emergence efficacy STEME (Stellaria media [24]; 320 g/ha): 100%
- post-emergence efficacy VERPE (Veronica persica [25]): 100%
- post-emergence efficacy VIOTR (Viola tricolor [26]; 80 g/ha): 90%
- post-emergence efficacy VIOTR (Viola tricolor [26]; 320 g/ha): 100%
